Experimental findings from ChEMBL document CHEMBL4043211, “Synthesis and anti-enterovirus activity of new analogues of MDL-860” (Bioorg Med Chem Lett, 2017) are described below.

One data set concerns Coxsackievirus B3. As to the kind of experiment: Antiviral activity against Coxsackievirus B3 Nancy infected in human Hep2 cells assessed as inhibition of virus-induced cytopathic effect after 48 hrs by neutral red uptake assay. Format: functional, cell-based. A general note: Protection from cytopathic effect is a common read-out in antiviral testing.
The nature of data set [1]: Selectivity index, ratio of CC50 for human Hep2 cells to IC50 for Coxsackievirus B3 Nancy infected in human Hep2 cells. Format: toxicity, cell-based. The following applies: HEp-2 cells, read-out: Ratio CC50/IC50.
Data set [2] relates to Coxsackievirus B1. Kind of data set: Antiviral activity against Coxsackievirus B1 Connecticut 5 infected in human Hep2 cells assessed as inhibition of virus-induced cytopathic effect after 48 hrs by neutral red uptake assay. Format: functional, cell-based.
A further data set relates to Poliovirus 1. Kind of data set: Antiviral activity against Poliovirus 1 LSc-2ab infected in human Hep2 cells assessed as inhibition of virus-induced cytopathic effect after 48 hrs by neutral red uptake assay. Format: functional, cell-based.
Data set [3] in a line: Cytotoxicity against human Hep2 cells assessed as decrease in cell viability after 48 hrs by neutral red uptake assay. The following applies: HEp-2 cells. Format: cell-based.
Data set [4] in a line: Selectivity index, ratio of CC50 for human Hep2 cells to IC50 for Poliovirus 1 infected in human Hep2 cells. Format: toxicity, cell-based. The following applies: HEp-2 cells, read-out: Ratio CC50/IC50.
Data set [5] is described as follows: Selectivity index, ratio of CC50 for human Hep2 cells to IC50 for Coxsackievirus B1 Connecticut 5 infected in human Hep2 cells. The data set is classed as toxicity, cell-based. The following applies: HEp-2 cells, read-out: Ratio CC50/IC50.
For data set [6], the system named is Coxsackievirus B1. As to the kind of experiment: Antiviral activity against Coxsackievirus B1 infected in new born ICR mouse assessed as protection index at 25 mg/kg, sc administered for 12 days (reference value: 0%). Format: functional.
Data set [7] has as its system Coxsackievirus B1. As to the kind of experiment: Antiviral activity against Coxsackievirus B1 infected in new born ICR mouse assessed as mortality at 25 mg/kg, sc administered for 12 days (reference value: 100%). The data set is classed as functional. The following applies: Enterovirus B, 288 h.
For data set [8], the system named is Coxsackievirus B1. Kind of data set: Antiviral activity against Coxsackievirus B1 infected in new born ICR mouse assessed as increase in mean survival time at 25 mg/kg, sc administered for 12 days. Format: functional.
Data set [9] has as its system Coxsackievirus B1. Kind of data set: Antiviral activity against Coxsackievirus B1 infected in new born ICR mouse assessed as increase in mean survival time at 50 mg/kg, sc administered for 12 days. Format: functional.
Data set [10] deals with Coxsackievirus B1. As to the kind of experiment: Antiviral activity against Coxsackievirus B1 infected in new born ICR mouse assessed as protection index at 50 mg/kg, sc administered for 12 days (reference value: 0%). The data set is classed as functional.
The subject of data set [11] is Coxsackievirus B1. As to the kind of experiment: Antiviral activity against Coxsackievirus B1 infected in new born ICR mouse assessed as mortality at 50 mg/kg, sc administered for 12 days (reference value: 100%). The data set is classed as functional. Conditions: Enterovirus B, 288 h; call rule not given here.
The test system of data set [12] is Coxsackievirus B1. Kind of data set: Antiviral activity against Coxsackievirus B1 infected in new born ICR mouse assessed as increase in mean survival time at 75 mg/kg, sc administered for 12 days. The data set is classed as functional.
Data set [13] relates to Coxsackievirus B1. As to the kind of experiment: Antiviral activity against Coxsackievirus B1 infected in new born ICR mouse assessed as mortality at 75 mg/kg, sc administered for 12 days (reference value: 100%). The data set is classed as functional. The following applies: Enterovirus B, 288 h.
Data set [14] has as its system Coxsackievirus B1. As to the kind of experiment: Antiviral activity against Coxsackievirus B1 infected in new born ICR mouse assessed as protection index at 75 mg/kg, sc administered for 12 days (reference value: 0%). Format: functional.
Where [15] appears, read: Enterovirus B, Nancy, HEp-2, 48 h, read-out: IC50.
[16] abbreviates: Enterovirus B, Connecticut 5, HEp-2, 48 h, read-out: IC50.
The mark [17] stands for this setting: Enterovirus C, LSc-2ab, HEp-2, 48 h, read-out: IC50.

`N#Cc1cc([N+](=O)[O-])ccc1Sc1ccccc1Cl`: the IC50 – broadly, the midpoint of a concentration-inhibition curve – in the data set with Coxsackievirus B3 (setting [15]) was 9.9 µM; in the data set on Coxsackievirus B1 [2], “Not Active”; in the data set with Poliovirus 1, “Not Active”. Besides, the selectivity ratio in data set [1] turned out to be 5.4. Besides, the CC50 (usually the concentration at which the toxic effect on the cells reaches its halfway point) at 48 h in [3] was 53.8 µM.
For the molecule `N#Cc1cc([N+](=O)[O-])ccc1Oc1ccccc1-c1cn2ccccc2n1`, the concentration for half-maximal inhibition (IC50) result in the data set on Coxsackievirus B3, in the data set on Coxsackievirus B1 [2] and in the data set on Poliovirus 1 was “Not Active” in each case. The CC50 at 48 h in data set [3] came out at 718 µM.
As for `COc1ccc(Oc2ccc([N+](=O)[O-])cc2C#N)c(C(C)(C)C)c1`, the IC50 entry in the data set with Coxsackievirus B3, in the data set on Coxsackievirus B1 [2] and in the data set on Poliovirus 1 was “Not Active” each time. The CC50 at 48 h in [3] amounted to 22 µM.
For the molecule `N#Cc1cc([N+](=O)[O-])ccc1N1C[C@@H]2C[C@H](C1)c1cccc(=O)n1C2`, the IC50 result in the data set on Coxsackievirus B3 is “Not Active”; with Coxsackievirus B1 [2] (setting [16]), 152 µM; with Poliovirus 1 (setting [17]), 234 µM. Besides, the selectivity ratio in [4] was found to be 2.1; in data set [5], 3.2. The half-maximal cytotoxic concentration (CC50) at 48 h in data set [3] turned out to be 492 µM.
Take `N#Cc1cc([N+](=O)[O-])ccc1Oc1c(F)cc(F)cc1F`: the figures for the IC50 entry with Coxsackievirus B3, with Coxsackievirus B1 [2] (setting [16]) and with Poliovirus 1 (setting [17]) were “Not Active”, 0.75 µM and 2.7 µM, respectively. Further, the PI with Coxsackievirus B1 [6] was found to be 11.6%. Further, the mortality (in general, the percentage killed) at 25 mg/kg in the data set with Coxsackievirus B1 [7] was found to be 88.4%. Further, the selectivity ratio in [4] amounted to 192; in [5], 690. In [3], the CC50 at 48 h was determined as 518 µM. In the data set with Coxsackievirus B1 [8], the MST amounted to 2.6 days.
Consider `Cc1c(Br)cc(Br)c(Oc2ccc([N+](=O)[O-])cc2C#N)c1Br`, for which the figures for the half-maximal inhibitory concentration (IC50) in the data set with Coxsackievirus B3 (setting [15]), with Coxsackievirus B1 [2] (setting [16]) and in the data set on Poliovirus 1 were 29.6 µM, 256 µM and “Not Active”, respectively. In addition, the selectivity ratio turned out to be 19.6 in data set [1] and 2.2 in [5]. Besides, the CC50 at 48 h in data set [3] came out at 570 µM.
Turning to `CC1(C)CC(Nc2ccc([N+](=O)[O-])cc2C#N)CC(C)(C)N1`, the results for the concentration for half-maximal inhibition (IC50) with Coxsackievirus B3 (setting [15]), in the data set on Coxsackievirus B1 [2] and in the data set with Poliovirus 1 were 426 µM, “Not Active” and “Not Active”, respectively. In data set [1], the selectivity ratio came to 1.5. Besides, the 50% cytotoxic concentration (CC50) at 48 h in data set [3] worked out at 675 µM.
As to `N#Cc1cc([N+](=O)[O-])ccc1Oc1ncn(-c2ccccc2)n1`, the IC50 result in the data set on Coxsackievirus B3 was “Not Active”; in the data set with Coxsackievirus B1 [2] (setting [16]) it was 190 µM; in the data set on Poliovirus 1 it was “Not Active”. Further, the CC50 at 48 h in data set [3] was found to be 571 µM. For the same molecule, in data set [5], the selectivity ratio was 3.
Consider `N#Cc1cc([N+](=O)[O-])ccc1Oc1c(F)cccc1F`, for which the IC50 result with Coxsackievirus B3 is “Not Active”; in the data set with Coxsackievirus B1 [2] (setting [16]), 0.7 µM; in the data set with Poliovirus 1 (setting [17]) it was 6.8 µM. Further, the figures for the selectivity ratio in data set [4] and in data set [5] were 52.2 and 507, respectively. Moreover, the MST in the data set with Coxsackievirus B1 [9] came out at 5.4 days. Moreover, in the data set with Coxsackievirus B1 [10], the PI amounted to 33.3%. For the same molecule, in [3], the CC50 at 48 h amounted to 355 µM. Also, in the data set on Coxsackievirus B1 [11], the mortality at 50 mg/kg amounted to 66.7%.
As for `Cc1ccc(C(C)C)c(Oc2ccc([N+](=O)[O-])cc2C#N)c1`, the IC50 result in the data set with Coxsackievirus B3 was “Not Active”; in the data set with Coxsackievirus B1 [2] (setting [16]) it was 16.2 µM; in the data set on Poliovirus 1 it was “Not Active”. Besides, in data set [3], the CC50 at 48 h came to 94.3 µM. The selectivity ratio in data set [5] is 5.8.
As to `N#Cc1cc([N+](=O)[O-])ccc1Oc1ccc(Cl)c(Cl)c1`, in the data set with Coxsackievirus B1 [12], the MST was 3 days. Also, the concentration for half-maximal inhibition (IC50) in the data set with Coxsackievirus B3 (setting [15]) was determined as 2.7 µM; in the data set on Coxsackievirus B1 [2] (setting [16]), 0.8 µM; in the data set with Poliovirus 1 (setting [17]), 6.8 µM. Moreover, the selectivity ratio came out at 182 in data set [1], 72.5 in data set [4] and 587 in data set [5]. Also, the mortality at 75 mg/kg with Coxsackievirus B1 [13] came to 100%. In addition, the PI in the data set with Coxsackievirus B1 [14] amounted to 0%. The CC50 at 48 h in [3] was 493 µM.
`N#Cc1cc([N+](=O)[O-])ccc1Oc1c(Cl)c(Cl)c(Cl)c(Cl)c1Cl`: the figures for the IC50 in the data set with Coxsackievirus B3 (setting [15]), in the data set with Coxsackievirus B1 [2] (setting [16]) and with Poliovirus 1 were 5.8 µM, 10.9 µM and “Not Active”, respectively. Also, the selectivity ratio stood at 20.5 in data set [1] and 10.9 in data set [5]. Besides, the CC50 at 48 h in data set [3] turned out to be 119 µM.
Turning to `N#Cc1cc([N+](=O)[O-])ccc1Oc1ccc(F)c(F)c1`, the figures for the IC50 result in the data set with Coxsackievirus B3, with Coxsackievirus B1 [2] (setting [16]) and with Poliovirus 1 (setting [17]) were “Not Active”, 0.8 µM and 2.7 µM, respectively. Also, the values for the selectivity ratio in data set [4] and in data set [5] were 118 and 405, respectively. The MST in the data set with Coxsackievirus B1 [9] was 5 days. For the same molecule, the PI in the data set on Coxsackievirus B1 [10] is given as 50%. The half-maximal cytotoxic concentration (CC50) at 48 h in [3] came to 320 µM. In addition, the mortality at 50 mg/kg in the data set with Coxsackievirus B1 [11] turned out to be 50%.
